Legend:
Type in all cases: in vivo
Details in all cases: 250 g/h, evaluated after 13 days
Lolium perenne (LOLPE) [1] = assay: Glasshouse herbicide test, post-emergence application
Description: (§1) Seeds of a variety of test species are sown in standard soil in pots (Lolium perenne (LOLPE), Setaria faberi (SETFA), Echinochloa crus-galli (ECHCG), Avena fatua (AVEFA)). After cultivation for one day (pre-emergence) or after 8 days cultivation (post-emergence) under controlled conditions in a glasshouse (at 24/16° C., day/night; 14 hours light; 65% humidity), the plants are sprayed with an aqueous spray solution derived from the formulation of the technical active ingredient in acetone/water (50:50) solution containing 0.5% Tween 20 (polyoxyethelyene sorbitan monolaurate, CAS RN 9005-64-5). Compounds are applied at 250 g/h. The test plants are then grown in a glasshouse under controlled conditions in a glasshouse (at 24/16° C., day/night; 14 hours light; 65% humidity) and watered twice daily. After 13 days for pre and post-emergence, the test is evaluated for the percentage damage caused to the plant. The biological activities are shown in the following table on a five point scale (5=80-100%; 4=60-79%; 3=40-59%; 2=20-39%; 1=0-19%).

Avena fatua (AVEFA) [2] = assay: as above
Description: as §1

Setaria faberi (SETFA) [3] = assay: as above
Description: as §1

[4] = test system: Echinochloa crus-galli (ECHCG); assay: as above
Description: as §1

Lolium perenne (LOLPE) [5] = assay: Glasshouse herbicide test, pre-emergence application
Description: as §1

Avena fatua (AVEFA) [6] = assay: as above
Description: as §1

Setaria faberi (SETFA) [7] = assay: as above
Description: as §1

[8] = test system: Echinochloa crus-galli (ECHCG); assay: as above
Description: as §1

SMILES	percentage damage caused to the plant, five point scale, LOLPE (Lolium perenne (LOLPE) [1])	percentage damage caused to the plant, five point scale, AVEFA (Avena fatua (AVEFA) [2])	percentage damage caused to the plant, five point scale, SETFA (Setaria faberi (SETFA) [3])	percentage damage caused to the plant, five point scale, ECHCG [4]	percentage damage caused to the plant, five point scale, LOLPE (Lolium perenne (LOLPE) [5])	percentage damage caused to the plant, five point scale, AVEFA (Avena fatua (AVEFA) [6])	percentage damage caused to the plant, five point scale, SETFA (Setaria faberi (SETFA) [7])	percentage damage caused to the plant, five point scale, ECHCG [8]
CC#Cc1cc(C)c(C2C(=O)CC3(CC2=O)CN(C(=O)C(C)(C)C)C3)c(OC)c1 [Compound 1.021]	5 (5=80-100%)	5 (5=80-100%)	5 (5=80-100%)	5 (5=80-100%)	5 (5=80-100%)	5 (5=80-100%)	5 (5=80-100%)	5 (5=80-100%)
CC#Cc1cc(C)c(C2C(=O)CC3(CC2=O)CN(C(C)=O)C3)c(OC)c1 [Compound 1.013]	5 (5=80-100%)	5 (5=80-100%)	5 (5=80-100%)	5 (5=80-100%)	5 (5=80-100%)	5 (5=80-100%)	5 (5=80-100%)	5 (5=80-100%)
CC#Cc1cc(C)c(C2C(=O)CC3(CC2=O)CN(S(=O)(=O)CC)C3)c(OC)c1 [Compound 1.014]	5 (5=80-100%)	5 (5=80-100%)	5 (5=80-100%)	5 (5=80-100%)	5 (5=80-100%)	5 (5=80-100%)	5 (5=80-100%)	5 (5=80-100%)
CC#Cc1cc(C)c(C2C(=O)CC3(CC2=O)CN(C(=O)CC#N)C3)c(C)c1 [Compound 1.012]	5 (5=80-100%)	4 (4=60-79%)	5 (5=80-100%)	5 (5=80-100%)	5 (5=80-100%)	5 (5=80-100%)	5 (5=80-100%)	5 (5=80-100%)
CC#Cc1cc(C)c(C2C(=O)CC3(CC2=O)CN(C(=O)c2ccccn2)C3)c(C)c1 [Compound 1.004]	5 (5=80-100%)	5 (5=80-100%)	5 (5=80-100%)	5 (5=80-100%)	5 (5=80-100%)	5 (5=80-100%)	5 (5=80-100%)	5 (5=80-100%)
CC#Cc1cc(C)c(C2C(=O)CC3(CC2=O)CN(C(=O)NC(C)(C)C)C3)c(C)c1 [Compound 1.006]	5 (5=80-100%)	5 (5=80-100%)	5 (5=80-100%)	5 (5=80-100%)	5 (5=80-100%)	2 (2=20-39%)	5 (5=80-100%)	5 (5=80-100%)
CC#Cc1cc(C)c(C2C(=O)CC3(CC2=O)CN(S(=O)(=O)CC)C3)c(C)c1 [Compound 1.002]	5 (5=80-100%)	5 (5=80-100%)	5 (5=80-100%)	5 (5=80-100%)	5 (5=80-100%)	5 (5=80-100%)	5 (5=80-100%)	5 (5=80-100%)
CC#Cc1cc(C)c(C2C(=O)CC3(CC2=O)CN(C(=O)c2ccccc2)C3)c(C)c1 [Compound 1.003, 2-benzoyl-7-(2,6-dimethyl-4-prop-1-ynyl-phenyl)-2-azaspiro[3.5]nonane-6,8-dione]	5 (5=80-100%)	5 (5=80-100%)	5 (5=80-100%)	5 (5=80-100%)	5 (5=80-100%)	5 (5=80-100%)	5 (5=80-100%)	5 (5=80-100%)
CC#Cc1cc(Cl)c(C2C(=O)CC3(CC2=O)CN(C(C)=O)C3)c(OC)c1 [Compound 1.195]	5 (5=80-100%)	5 (5=80-100%)	5 (5=80-100%)	5 (5=80-100%)	5 (5=80-100%)	5 (5=80-100%)	5 (5=80-100%)	5 (5=80-100%)
CC#Cc1cc(Cl)c(C2C(=O)CC3(CC2=O)CN(C(=O)C(F)F)C3)c(OC)c1 [Compound 1.193]	5 (5=80-100%)	5 (5=80-100%)	5 (5=80-100%)	5 (5=80-100%)	5 (5=80-100%)	5 (5=80-100%)	5 (5=80-100%)	5 (5=80-100%)
CC#Cc1cc(C)c(C2C(=O)CC3(CC2=O)CN(C(=O)CC#N)C3)c(OC)c1 [Compound 1.023]	5 (5=80-100%)	5 (5=80-100%)	5 (5=80-100%)	5 (5=80-100%)	3 (3=40-59%)	2 (2=20-39%)	3 (3=40-59%)	1 (1=0-19%)
CC#Cc1cc(Cl)c(C2C(=O)CC3(CC2=O)CN(C(=O)C2CC2)C3)c(OC)c1 [Compound 1.196]	5 (5=80-100%)	5 (5=80-100%)	5 (5=80-100%)	5 (5=80-100%)	5 (5=80-100%)	5 (5=80-100%)	5 (5=80-100%)	5 (5=80-100%)

Source: patent US12398101B2, “Herbicidal 2-azaspiro[3-5]nonane compounds” (SYNGENTA CROP PROTECTION AG, priority 2018, dated 2025)
